US9796668B2, “Natural product analogs including an anti-inflammatory cyanoenone pharmacore and methods of use” (REATA PHARMACEUTICALS, INC., priority 2008, dated 2017)
Read-outs that look alike come from different tables or passages of the source.

How the values were obtained:
[1] = test system: IFNγ-induced NO production in RAW264.7 macrophages; test: Suppression of IFNγ-induced NO production (Griess reagent); assay type: cell-based, mouse
Description: (§1) FIGS. 1-16 and 20-24. Inhibition of NO Production. RAW264.7 macrophages were pre-treated with DMSO or drugs at various concentrations (μM) for 2 hours, then treated with IFNγ for 24 hours. NO concentration in media was determined using a Griess reagent system; cell viability was determined using the WST-1 reagent.
Compounds of the present disclosure have been tested for inhibition of NO production. Experimental details are provided in Example 1.
(§2) RAW264.7 macrophages were pre-treated with DMSO or drugs for 2 hours, then treated with recombinant mouse IFNγ (Sigma) for 24 hours. NO concentration in media was determined using the Griess reagent system (Promega). Cell viability was determined using WST-1 reagent (Roche).

RAW264.7 macrophages = test: Cell viability (WST-1 reagent); assay type: cell-based, mouse; conditions: RAW264.7, 20 ng/ml IFNγ
Description: as §1, §2

[2] = Mus musculus, RAW264.7, 20 ng/ml IFNγ, read-out: NO IC50
[3] = Mus musculus, RAW264.7, read-out: NO IC50
[4] = Mus musculus, RAW264.7, read-out: IC50 in the NO assay
[5] = Mus musculus, RAW264.7, parent compounds, read-out: IC50 in the NO assay

CC1(C)C(=O)C(C#N)=C[C@]2(C)C3CC[C@@]4(C)C(CC[C@@H]4O)C3CCC12 (stereo partly drawn) [Compound D0017, (10S,13S,17S)-17-hydroxy-4,4,10,13-tetramethyl-3-oxo-4,5,6,7,8,9,10,11,12,13,14,15,16,17-tetradecahydro-3H-cyclopenta[a]phenanthrene-2-carbonitrile]
IC50 [1, 2]: 0.14 µM | IC50 (RAW264.7 macrophages; Mus musculus): 10 µM

C[C@]12C=C(C#N)C(=O)C3(CCCC3)C1=CC[C@@H]1[C@@H]2CC[C@]2(C)C(=O)CC[C@@H]12 [Compound 63318]
IC50 [1, 3]: ~0.05 µM

COCO[C@H]1C[C@H]2[C@@H]([C@H](OCOC)C[C@@H]3CC(=O)C(C#N)=C[C@@]32C)[C@@H]2CC[C@H]([C@H](C)CCC(=O)OC)[C@@]12C [Compound 63312]
IC50 [1, 3]: ~3.5 µM | IC50 (RAW264.7 macrophages; Mus musculus): > 0.2 µM

C[C@@]12CCC3C(CCC4=C(C#N)C(=O)CC[C@]43C)C1CCC2O (stereo partly drawn) [Compound D0015, (10S,13R)-17-hydroxy-10,13-dimethyl-3-oxo-2,3,6,7,8,9,10,11,12,13,14,15,16,17-tetradecahydro-1H-cyclopenta[a]phenanthrene-4-carbonitrile]
IC50 [1, 2]: 2.9 µM | IC50 (RAW264.7 macrophages; Mus musculus): > 10 µM

COc1cc(/C=C/C(=O)C(C)(C)C(=O)/C=C/[C@@]2(C)C=C(C#N)C(=O)C(C)(C)C2)ccc1O [Compound C0009, (S)-3-((1E,6E)-7-(4-hydroxy-3-methoxyphenyl)-4,4-dimethyl-3,5-dioxohepta-1,6-dienyl)-3,5,5-trimethyl-6-oxocyclohex-1-enecarbonitrile]
IC50 [1, 4]: 0.1 µM | IC50 [1, 2]: 0.1 µM | IC50 (RAW264.7 macrophages; Mus musculus): 1 µM

C[C@]1(/C=C/c2ccc(O)cc2)C=C(C#N)C(=O)CC1 [Compound R00141, (S,E)-3-(4-hydroxystyryl)-3-methyl-6-oxocyclohex-1-enecarbonitrile]
IC50 [1, 2]: 3 µM | IC50 (RAW264.7 macrophages; Mus musculus): > 10 µM

CC1(C)C(=O)C(C#N)=C[C@]2(C)C3CC[C@]4(C)C(O[Si](C)(C)C)CCC4C3CCC12 (stereo partly drawn) [Compound D0016, (10S,13S)-4,4,10,13-tetramethyl-3-oxo-17-(trimethylsilyloxy)-4,5,6,7,8,9,10,11,12,13,14,15,16,17-tetradecahydro-3H-cyclopenta[a]phenanthrene-2-carbonitrile]
IC50 [1, 2]: 0.15 µM | IC50 (RAW264.7 macrophages; Mus musculus): 10 µM

CC1CC[C@@]2(OC1)OC1CC3C4CCC5CC(=O)C(C#N)=C[C@]5(C)C4=CC(=O)[C@]3(C)C1[C@@H]2C (stereo partly drawn) [Compound H0001]
IC50 [1, 3]: 0.15 µM | IC50 (RAW264.7 macrophages; Mus musculus): 2.5 µM

C[C@]12C=C(C#N)C(=O)C3(CC=CC3)C1=CC[C@@H]1[C@@H]2CC[C@]2(C)C(=O)CC[C@@H]12 [Compound 63311]
IC50 [1, 3]: ~0.02 µM | IC50 (RAW264.7 macrophages; Mus musculus): ~0.75 µM

CC1(C)C(=O)C(C#N)=C[C@]2(C)C3CC[C@]4(C)C(=O)CCC4C3CCC12 (stereo partly drawn) [Compound D0018, (10S,13S)-4,4,10,13-tetramethyl-3,17-dioxo-4,5,6,7,8,9,10,11,12,13,14,15,16,17-tetradecahydro-3H-cyclopenta[a]phenanthrene-2-carbonitrile]
IC50 [1, 4]: 0.13 µM | IC50 [1, 2]: 0.13 µM | IC50 (RAW264.7 macrophages; Mus musculus): > 10 µM

C[C@@H]1CC[C@@]2(OC1)O[C@H]1C[C@H]3[C@@H]4CC[C@H]5C[C@@H](O)CC[C@]5(C)[C@H]4CC(=O)[C@]3(C)[C@H]1[C@@H]2C [Hecogenin, hecogenin, reference compound]
IC50 ([1]; RAW264.7, 20 ng/ml IFNγ, read-out: NO IC50): > 10 µM | IC50 (RAW264.7 macrophages): > 10 µM

COc1cc(C=CC2(C(C)(C)C(=O)/C=C/[C@@]3(C)C=C(C#N)C(=O)C(C)(C)C3)OCCO2)ccc1O[Si](C)(C)C(C)(C)C [Compound C0008, (S)-3-((E)-4-(2-(4-(tert-butyldimethylsilyloxy)-3-methoxystyryl)-1,3-dioxolan-2-yl)-4-methyl-3-oxopent-1-enyl)-3,5,5-trimethyl-6-oxocyclohex-1-enecarbonitrile]
IC50 [1, 3]: 0.34 µM | IC50 (RAW264.7 macrophages; Mus musculus): 5 µM

CCCC1(CCC)C(=O)C(C#N)=C[C@@]2(C)C1=CC[C@@H]1[C@@H]2CC[C@]2(C)C(=O)CC[C@@H]12 [Compound 63313]
IC50 [1, 3]: ~0.45 µM | IC50 (RAW264.7 macrophages; Mus musculus): ~2.5 µM

C=CCC1(CC=C)C(=O)C(C#N)(C#N)C[C@@]2(C)C1=CC[C@@H]1[C@@H]2CC[C@@]2(C)[C@H]1CCC21OCCO1 [Compound 63291]
IC50 [1, 3]: ~1.5 µM | IC50 (RAW264.7 macrophages; Mus musculus): > 10 µM

COC(=O)CC[C@@H](C)[C@H]1CC[C@H]2[C@@H]3[C@H](O)C[C@@H]4CC(=O)C(C#N)=C[C@]4(C)[C@H]3C[C@H](O)[C@]12C [Compound 63314]
IC50 [1, 3]: ~8 µM | IC50 (RAW264.7 macrophages; Mus musculus): > 0.2 µM

CC1(C)C[C@@](C)(/C=C/c2ccc(O)cc2)C=C(C#N)C1=O [Compound R00142, (S,E)-3-(4-hydroxystyryl)-3,5,5-trimethyl-6-oxocyclohex-1-enecarbonitrile]
IC50 [1, 2]: 1.2 µM | IC50 (RAW264.7 macrophages; Mus musculus): > 10 µM

COCOC1CCC2C3CCC4=C(C#N)C(=O)CC[C@@]4(C)C3CC[C@@]12C (stereo partly drawn) [Compound D0014, (10S,13R)-17-(methoxymethoxy)-10,13-dimethyl-3-oxo-2,3,6,7,8,9,10,11,12,13,14,15,16,17-tetradecahydro-1H-cyclopenta[a]phenanthrene-4-carbonitrile]
IC50 [1, 3]: 2.4 µM | IC50 (RAW264.7 macrophages; Mus musculus): > 10 µM

COc1cc(C=CC2(C(C)(C)C(=O)/C=C/[C@@]3(C)C=C(C#N)C(=O)C(C)(C)C3)OCCO2)ccc1O [Compound C0010, (S)-3-((E)-4-(2-(4-hydroxy-3-methoxystyryl)-1,3-dioxolan-2-yl)-4-methyl-3-oxopent-1-enyl)-3,5,5-trimethyl-6-oxocyclohex-1-enecarbonitrile]
IC50 [1, 2]: 0.7 µM | IC50 (RAW264.7 macrophages; Mus musculus): 5 µM

COc1cc(/C=C/C(=O)CC(=O)/C=C/c2ccc(O)c(OC)c2)ccc1O [Curcumin, curcumin, reference compound]
IC50 [1, 5]: 1.5 µM | IC50 [1, 2]: 1.35 µM | IC50 (RAW264.7 macrophages; Mus musculus): 4 µM

C[C@]12CC[C@H]3[C@@H](CC=C4C5(CCCC5)C(=O)C(C#N)=C[C@@]43C)[C@@H]1CC[C@@H]2O [Compound 63329]
IC50 [1, 3]: ~0.06 µM

C[C@]12C=C(C#N)C(=O)C3(CCCC3)C1=CC[C@@H]1[C@@H]2CC[C@@]2(C)[C@H]1CCC21OCCO1 [Compound 63317]
IC50 [1, 3]: ~0.07 µM

C[C@]12C=C(C#N)C(=O)C3(CC=CC3)C1=CC[C@@H]1[C@@H]2CC[C@@]2(C)[C@H]1CCC21OCCO1 [Compound 63304]
IC50 [1, 3]: ~0.03 µM | IC50 (RAW264.7 macrophages; Mus musculus): ~0.4 µM

C=CCC1(CC=C)C(=O)C(C#N)(C#N)C[C@@]2(C)C1=CC[C@@H]1[C@@H]2CC[C@]2(C)C(=O)CC[C@@H]12 [Compound 63290]
IC50 [1, 3]: ~3 µM | IC50 (RAW264.7 macrophages; Mus musculus): ~10 µM

C[C@]12CC[C@H](O)CC1=CC[C@@H]1[C@@H]2CC[C@]2(C)C(=O)CC[C@@H]12 [DHEA, dehydroandrosterone, reference compound]
IC50 [1, 5]: > 10 µM | IC50 [1, 2]: > 10 µM | IC50 (RAW264.7 macrophages; Mus musculus): > 10 µM

Oc1ccc(C=Cc2cc(O)cc(O)c2)cc1 [Resveratrol, resveratrol, reference compound]
IC50 [1, 2]: > 10 µM | IC50 (RAW264.7 macrophages; Mus musculus): > 10 µM
